This is an account of results in paper PMC7539012, “Hyperphosphorylated tau aggregation and cytotoxicity modulators screen identified prescription drugs linked to Alzheimer's disease and cognitive functions” (Scientific Reports, 2020).

The experiment relates to T1, 1N4R p-tau.
T1 construct: made in house; host or cells: E. coli (PIMAX system)
Kind of experiment: p-tau aggregation modulator screen of 1280-compound library (ThS fluorescence net change over 16 h). It counts as biochemical. Also noted: key to PTAI>3SD: *: PTAI>3SD.

Where [1] appears, read: p-tau aggregation modulator screen of the compound library, ThS fluorescence net change.
[2] abbreviates: p-tau aggregation modulator screen of 1280-compound library, ThS fluorescence net change.
Setting [3] is: 1280-compound library screen, ThS fluorescence net change over 16 h.
Where [4] appears, read: library screen, ThS fluorescence net change over 16 h with p-tau.
[5] abbreviates: 1280-compound library screen, […].
[6] abbreviates: p-tau aggregation modulator screen of 1280-compound library, […].

Each structure is given as a SMILES string. Structures can show the parent of a compound that is named as a salt. Where two headings read alike, the source gives them in different places.

Compound `C[C@]12C/C(=C/O)C(=O)C[C@@H]1CC[C@@H]1[C@@H]2CC[C@@]2(C)[C@H]1CC[C@]2(C)O` [Oxymetholone] returned a ThS net change of 475. `CC(C)(O)c1ccccc1CC[C@@H](SCC1(CC(=O)O)CC1)c1cccc(/C=C/c2ccc3ccc(Cl)cc3n2)c1` [Montelukast] returned a ThS net change under setting [1] of 592.

In turn, `Cc1ccccc1OCC(O)CO` (centres unmarked) [Mephenesin] gave a ThS net change under setting [2] of 350.

As for `Nc1ncn(C2O[C@H](CO)[C@@H](O)[C@H]2O)c(=O)n1` (some centres unmarked) [Azacytidine-5], the ThS net change under setting [3] was 405.

Compound `CC(C)[C@H](N)C(=O)OCCOCn1cnc2c(=O)[nH]c(N)nc21` [Valacyclovir hydrochloride] gave a ThS net change under setting [3] of 396. On the same count and under the same terms, under `CCOCCn1c(N2CCCN(C)CC2)nc2ccccc21` [Emedastine] stands 387; under `CC(=O)Nc1ccc(O)cc1` [Acetaminophen], 385. For the compound `Nc1nc(N)nc(-c2cc(Cl)ccc2Cl)n1` [Irsogladine maleate], under setting [4], the ThS net change is given as 308. The compound `Cc1ncc([N+](=O)[O-])n1CCO` [Metronidazole] came in with a ThS net change under setting [2] of 365. Compound `Cc1ccc(NC(=O)c2ccc(CN3CCN(C)CC3)cc2)cc1Nc1nccc(-c2cccnc2)n1` [Imatinib] yielded a ThS net change under setting [3] of 409.

The compound `C=C1C[C@@H]2[C@H](CC[C@]3(C)C(=O)CC[C@@H]23)[C@@]2(C)C=CC(=O)C=C12` [Exemestane] yielded a ThS net change under setting [2] of 373.

In turn, `OCCOCCN1CCN(C2=Nc3ccccc3Sc3ccccc32)CC1` [Quetiapine hemifumarate] registered a ThS net change under setting [1] of 424. Compound `CN(C)CCC=C1c2ccccc2COc2ccccc21` [Doxepin hydrochloride] displayed a ThS net change under setting [2] of 341. Under setting [5], `CNCC(O)c1ccc(O)cc1` (racemic) [(+,-)-Synephrine] showed a ThS net change of 410. Compound `O=C(O)CCC(=O)c1ccc(-c2ccccc2)cc1` [Fenbufen] registered a ThS net change under setting [2] of 368. Under setting [1], `CC(=O)O[C@]1(C(C)=O)CC[C@H]2[C@@H]3C=C(C)C4=CC(=O)CC[C@@H]4[C@H]3CC[C@@]21C` [Nomegestrol acetate] had a ThS net change of 463. Under setting [4], `CN1CCC(=C2c3ccccc3Sc3ccccc32)CC1` [Pimethixene maleate] showed a ThS net change of 320.

Under setting [6], `COc1cc2nc(N3CCN(C(=O)C4CCCO4)CC3)nc(N)c2cc1OC` (centres unmarked) [Terazosin hydrochloride] yielded a ThS net change of 366. For `CC/C(=C(/CC)c1ccc(O)cc1)c1ccc(O)cc1` [diethylstilbestrol, reference compound], where the note is “30 µM compound, 6 µM p-tau, 16 h”, the “effect on p-tau aggregation in pilot screen” value is listed as “none of them affected p-tau aggregation”. This compound also yielded a ThS net change under setting [3] of 406. In turn, `Cc1cc(C(C#N)c2ccc(Cl)cc2)c(Cl)cc1NC(=O)c1cc(I)cc(I)c1O` (centres unmarked) [Closantel] yielded a ThS net change under setting [1] of 423. `CCN(CC)C(C)C(=O)c1ccccc1` (centres unmarked) [Amfepramone hydrochloride] yielded a ThS net change under setting [5] of 388. `CCN1CCCC1CNC(=O)c1cc(S(=O)(=O)CC)c(N)cc1OC` (centres unmarked) [Amisulpride]: the ThS net change under setting [1] was found to be 428. `CC(=O)O[C@H]1C[C@@H]2CC[C@@H]3[C@H](CC[C@@]4(C)[C@H]3C[C@H]([N+]3(C)CCCCC3)[C@@H]4OC(C)=O)[C@@]2(C)C[C@@H]1[N+]1(C)CCCCC1` [Pancuronium bromide]: the ThS net change came out at 491.

For the compound `Cn1c(=O)c2c(ncn2CC(O)CO)n(C)c1=O` (centres unmarked) [Diprophylline], under setting [3], the ThS net change was 381. The compound `C/C(=C(/CCO)SSCC1CCCO1)N(C=O)Cc1cnc(C)nc1N.Cl` (centres unmarked) [Fursultiamine Hydrochloride] returned a ThS net change of 360. For the compound `CC(=O)OCC(=O)[C@@]1(O)[C@H](C)C[C@H]2[C@@H]3CCC4=CC(=O)C=C[C@]4(C)[C@@]3(F)[C@@H](O)C[C@@]21C` [Dexamethasone acetate], under setting [2], the ThS net change is recorded as 343. In the case of `[H]/N=C(/NCCCCC)N/N=C/c1c[nH]c2ccc(OC)cc12` [Tegaserod maleate], the ThS net change under setting [3] came to 379. Consider `NC[C@H]1CC[C@H](C(=O)O)CC1` [Tranexamic acid], for which the ThS net change under setting [3] is on record as 409. In the case of `CCC1(c2ccccc2)C(=O)NCNC1=O` [Primidone], the ThS net change under setting [2] was 346. The compound `O=C1CC2(CCCC2)CC(=O)N1CCCCN1CCN(c2ncccn2)CC1` [Buspirone hydrochloride] yielded a ThS net change under setting [1] of 445.

Turning to `Cc1ccc(Cl)c(Nc2ccccc2C(=O)[O-])c1Cl.O.[Na+]`, the ThS net change is 436.

In turn, `Clc1ccc(Nc2nnc(Cc3ccncc3)c3ccccc23)cc1` [Vatalanib] gave a ThS net change under setting [2] of 356. The compound `COc1cc(C)nc(-n2nc(C)cc2OC)n1` [Epirizole] showed a ThS net change under setting [3] of 389. Compound `COc1ccc(CN(CCN(C)C)c2ccccn2)cc1` [Pyrilamine maleate] showed a ThS net change under setting [4] of 298.

For the compound `c1ccc2c(c1)CCCC2C1=NCCN1` (centres unmarked) [Tetrahydrozoline hydrochloride], the ThS net change under setting [2] was 362.

`CCCCN1CCCCC1C(=O)Nc1c(C)cccc1C` (centres unmarked) [Bupivacaine hydrochloride]: the ThS net change under setting [2] is given as 364. On the same count and under the same terms, under `c1ccc(C2CN3CCSC3=N2)cc1` (centres unmarked) [Tetramisole hydrochloride] stands 368.

As to `Nc1ccccc1S(N)(=O)=O` [2-Aminobenzenesulfonamide], under setting [1], the ThS net change was 430. On to `CN1CC[C@@]2(C)c3cc(O)ccc3N(C)[C@H]12.O=C(O)/C=C/C(=O)O` [(-)-Eseroline fumarate salt], for which the ThS net change was determined as 309.

For the compound `COc1cc([C@@H]2c3cc4c(cc3[C@H](O)[C@H]3COC(=O)[C@H]23)OCO4)cc(OC)c1OC` [Podophyllotoxin], under setting [5], the ThS net change is given as 402.

With `CO[C@H]1/C=C/O[C@@]2(C)Oc3c(C)c(O)c4c(c3C2=O)C2=NC3(CCN(CC(C)C)CC3)NC2=C(NC(=O)/C(C)=C\C=C\[C@H](C)[C@H](O)[C@@H](C)[C@@H](O)[C@@H](C)[C@H](OC(C)=O)[C@@H]1C)C4=O` [Rifabutin], the ThS net change under setting [4] was determined as 267.

Turning to `COc1ccc(C(CN(C)C)C2(O)CCCCC2)cc1` (centres unmarked) [Venlafaxine], the ThS net change under setting [5] is 404.

Consider `Nc1nc(=O)n([C@@H]2CS[C@H](CO)O2)cc1F` [(-)-Emtricitabine], for which the ThS net change under setting [2] was determined as 359. `Cc1cccc(C)c1OCC(C)N` (centres unmarked) [Mexiletine hydrochloride] came in with a ThS net change under setting [3] of 381. For `COC(=O)Nc1nc2ccc(C(=O)c3cccs3)cc2[nH]1` [Nocodazole], under setting [3], the ThS net change stood at 409. Under setting [2], `Nc1nc(=O)c2c([nH]1)NCC(CNc1ccc(C(=O)N[C@@H](CCC(=O)[O-])C(=O)[O-])cc1)N2C=O.[Ca+2]` (some centres unmarked) [Folinic acid calcium salt] gave a ThS net change of 359. In turn, `CC(N)C12CC3CC(CC(C3)C1)C2` (centres unmarked) [Rimantadine Hydrochloride] had a ThS net change under setting [2] of 365. For the compound `Cc1cc2cc3c(C)cc(=O)oc3c(C)c2o1` [Trioxsalen], under setting [3], the ThS net change amounted to 390.

`C#CCN(C)Cc1ccccc1` [Pargyline hydrochloride]: the ThS net change under setting [3] was found to be 389. `NC(=O)N1c2ccccc2CC(=O)c2ccccc21` [Oxcarbazepine] showed a ThS net change under setting [2] of 376. For the compound `C#C[C@]1(O)CC[C@H]2[C@@H]3CCC4=CC(=O)CC[C@]4(C)[C@H]3CC[C@@]21C` [Ethisterone], the ThS net change is given as 490. `CN(CCOc1ccc(CC2SC(=O)NC2=O)cc1)c1ccccn1.Cl` (centres unmarked) [Rosiglitazone Hydrochloride]: under setting [1], the ThS net change is reported as 476. `CCN(CC)CCCC(C)Nc1c2ccc(Cl)cc2nc2ccc(OC)cc12.Cl.Cl.O.O` (centres unmarked) [Quinacrine dihydrochloride hydrate] yielded a ThS net change of 203. Under setting [3], `Cc1ncc([N+](=O)[O-])n1CC(O)CCl` (centres unmarked) [Ornidazole] gave a ThS net change of 383.

In turn, `CCOC(=O)c1cncn1[C@H](C)c1ccccc1` [Etomidate] came in with a ThS net change of 447. With `C[N+]1(C)CCCC(OC(=O)C(O)(c2ccccc2)c2ccccc2)C1` (centres unmarked) [Mepenzolate bromide], the ThS net change under setting [6] is reported as 366. On to `COc1cc(NS(=O)(=O)c2ccc(N)cc2)nc(OC)n1` [Sulfadimethoxine], for which the ThS net change under setting [3] turned out to be 380. `COc1ccc(OC)c(C(O)C(C)N)c1` (centres unmarked) [Methoxamine hydrochloride] yielded a ThS net change under setting [3] of 405.

Compound `CC(=O)O[C@]1(C(C)=O)CC[C@H]2[C@@H]3C=C(Cl)C4=CC(=O)CC[C@]4(C)[C@H]3CC[C@@]21C` [Chlormadinone acetate] yielded a ThS net change under setting [3] of 385. Same read-out and setting: under `CC(C)NCC(O)c1ccc2ccccc2c1.Cl` (centres unmarked) [Pronethalol hydrochloride] stands 411. `CCCSc1ccc2nc(NC(=O)OC)[nH]c2c1` [Albendazole] displayed a ThS net change of 324.

Compound `Clc1ccc(CSC(Cn2ccnc2)c2ccc(Cl)cc2Cl)cc1` (centres unmarked) [Sulconazole nitrate] returned a ThS net change under setting [6] of 336. The compound `C[C@H](O)C(=O)Nc1c(I)c(C(=O)NC(CO)CO)c(I)c(C(=O)NC(CO)CO)c1I` [Iopamidol] gave a ThS net change under setting [2] of 369. `O=C1CN2Cc3c(ccc(Cl)c3Cl)N=C2N1` [Anagrelide]: the “PTAI>3SD” value (flag: p-tau aggregation inhibitor, ThS net change more than 3 SD from mean) is recorded as “*”. The compound also came in with a ThS net change under setting [4] of 22.

Compound `CC1(C)O[C@@H]2C[C@H]3[C@@H]4CCC5=CC(=O)C=C[C@]5(C)[C@H]4[C@@H](O)C[C@]3(C)[C@]2(C(=O)CO)O1` [Desonide] yielded a ThS net change under setting [1] of 440. In turn, `C[C@H]1[C@H](NC(=O)/C(=N\OC(C)(C)C(=O)O)c2csc(N)n2)C(=O)N1S(=O)(=O)O` [Aztreonam] had a ThS net change under setting [3] of 386. Compound `Cc1c(Cl)cccc1Nc1ncccc1C(=O)O.NCCCC[C@H](N)C(=O)O` [Clonixin Lysinate] came in with a ThS net change of 462.

`Cc1cc(NS(=O)(=O)c2ccc(N)cc2)no1` [Sulfamethoxazole]: the ThS net change under setting [2] worked out at 376. As to `Cc1cccc(C)c1N=C1NCCCS1` [Xylazine], the ThS net change under setting [6] turned out to be 366.
